Here are results for 39 compounds from US8268809B2, “Kinase inhibitors for preventing or treating pathogen infection and method of use thereof” (priority 2006, dated 2012).

“Also recorded” adds a separate entry of the source.
Throughout, for VACCINIA PLAQUE ASSAY 2: test concentration or dose not given here.

In this assay the test system is vaccinia virus. The assay is classed as cell-based.
`CCOC(=O)c1ccc(-c2ccc3c(-c4ccc(C(=O)OCC)cc4)n[nH]c3n2)cc1` [APcK-48]: the “Class category of infected monolayers in plaque assay” value (shortened to “Class category of infected monolayers”) is recorded as “Class III”, the “VACCINIA PLAQUE ASSAY 2” value is recorded as “SMALL PLAQUES” and the “VACCINIA Plaque Assay” value was “PINPOINT PLAQUES”.
Turning to `COc1ccccc1NS(=O)(=O)c1cccc(NC(=O)CCOc2ccc3c(=O)[nH]ccc3c2)c1` [JAK2F], the “Class category of infected monolayers” value is “Class II”, the “VACCINIA PLAQUE ASSAY 2” value is “SLIGHTLY SMALLER PLAQUES” and the “VACCINIA Plaque Assay” value is given as “SMALL PLAQUES”.
On to `COc1ccc(-c2n[nH]c3nc(-c4ccc(C(=O)c5ccccc5)cc4)ccc23)cc1` [APcK-34], for which the “Plaque phenotype due to drug treatment (FIGS. 1, 2, 4)” value (shortened to “Plaque phenotype due”) was “small plaque and large comets; also recorded: small plaques with large comets”; the “VACCINIA Plaque Assay” value is listed as “SMALL PLAQUES, LARGE COMETS”.
For `COc1ccccc1NS(=O)(=O)c1cccc(Nc2cc(-c3ccc(OC(C)=O)cc3)ncn2)c1` [Eph2_wbz 105], the “Class category of infected monolayers” value is listed as “Class III”; the “Plaque phenotype due” value was “small plaques with comets”; the “VACCINIA PLAQUE ASSAY 2” value is reported as “NO PLAQUES”; the “VACCINIA Plaque Assay” value is “SMALLER PLAQUES THAN WT”.
For the compound `CC(=O)Nc1cccc(-c2ccc3c(-c4ccc(F)c(C)c4)n[nH]c3n2)c1` [APcK-102], the “Class category of infected monolayers” value is given as “Class III”, the “VACCINIA PLAQUE ASSAY 2” value was “NO PLAQUES” and the “VACCINIA Plaque Assay” value was “SMALLER PLAQUES THAN WT”.
Take `CCOC(=O)c1ccc(-c2n[nH]c3nc(-c4cc(OC)cc(OC)c4)ccc23)cc1` [APcK-108]: the “Class category of infected monolayers” value was “Class III”; the “Plaque phenotype due” value is listed as “pinpoint plaque formations; also recorded: pinpoint plaques”; the “VACCINIA PLAQUE ASSAY 2” value is on record as “SMALL PLAQUES”; the “VACCINIA Plaque Assay” value was “PINPOINT PLAQUES”.
On to `Cc1ccc(NC(=O)c2ccc(CN3CCN(CCF)CC3)cc2)cc1Nc1nccc(-c2cccnc2)n1` [STLF2], for which the “Class category of infected monolayers” value is recorded as “Class III”, the “VACCINIA PLAQUE ASSAY 2” value is on record as “NO PLAQUES” and the “VACCINIA Plaque Assay” value was “PIN POINT PLAQUES”.
For the compound `Brc1cnc2c(NCC3CC3)nccn12` [LG2-101], the “Class category of infected monolayers” value is given as “Class III”; the “VACCINIA PLAQUE ASSAY 2” value is listed as “PINPOINTS”; the “VACCINIA Plaque Assay” value is recorded as “SMALL PLAQUES, WITH TAILS”.
For `COc1ccccc1NS(=O)(=O)c1cccc(Nc2cc(-c3ccc(C(=O)O)cc3)ncn2)c1` [Eph2_wbz 104], in that order: “Class III”, “SLIGHTLY SMALLER PLAQUES” and “NO PLAQUES”.
On the same counts, the results for `Cc1cc(-c2ccc3c(-c4ccc(Cl)c(F)c4)n[nH]c3n2)cc(C)c1O` [APcK-107] are “Class II”, “SMALLER PLAQUES THAN WT” and “SMALLER PLAQUES THAN WT”.
With `CCOC(=O)c1ccc(-c2n[nH]c3nc(-c4ccc(NC(C)=O)cc4)ccc23)cc1` [APcK-19], the “VACCINIA PLAQUE ASSAY 2” value is recorded as “SMALL PLAQUES”.
On to `O=C(c1ccccc1)c1ccc(-c2ccc3c(-c4ccc(Cl)c(F)c4)n[nH]c3n2)cc1` [APcK-35], for which the “Class category of infected monolayers” value is on record as “Class III”; the “VACCINIA PLAQUE ASSAY 2” value is “NO PLAQUES”; the “VACCINIA Plaque Assay” value is “SMALL PLAQUES, NO COMETS”.
For `CCc1nnc2ccc(-c3cccc(NC(=O)c4ccc(OC)c(OC)c4)c3)nn12` [YYB41], in that order: “Class II”, “SMALL PLAQUES” and “SMALL PLAQUES”.
As to `Fc1ccc(CNc2nccn3c(Br)cnc23)cc1` [LG2-91], the “Class category of infected monolayers” value is “Class III”; the “Plaque phenotype due” value is given as “no pinpoint plaque formed; also recorded: no plaques”; the “VACCINIA PLAQUE ASSAY 2” value was “NO PLAQUES”; the “VACCINIA Plaque Assay” value was “NO PLAQUES”.
Take `COC(=O)c1ccc(-c2cc(Nc3ccccc3OC)ncn2)cc1OC` [Eph2_wbz 211]: the “Class category of infected monolayers” value was “Class II”, the “VACCINIA PLAQUE ASSAY 2” value is “SLIGHTLY SMALLER PLAQUES” and the “VACCINIA Plaque Assay” value was “SMALL PLAQUES Comets?”.
As to `CN(C)CCCNC(=O)/C=C\C(=O)Nc1ccc2ncnc(Nc3cccc(I)c3)c2c1` [JGAP-13], the “Plaque phenotype due” value is listed as “more plaque formations than wild type; also recorded: more plaques than WT” and the “VACCINIA Plaque Assay” value is on record as “MORE PLAQUES THAN WT”.
On to `O=C(Nc1cccc(-c2ccc3nnc(-c4ccco4)n3n2)c1)Sc1ccccc1` [LG2-79], for which the “Class category of infected monolayers” value is “Class II”; the “VACCINIA PLAQUE ASSAY 2” value is “SMALL PLAQUES”; the “VACCINIA Plaque Assay” value is given as “SMALLER PLAQUES, COMETS?”.
Consider `O=C(NCCO)c1cccc(-c2cnc3c(NCc4cccs4)nccn23)c1` [LG2-98], for which the “Class category of infected monolayers” value is “Class III”; the “VACCINIA PLAQUE ASSAY 2” value is recorded as “PINPOINTS”; the “VACCINIA Plaque Assay” value is reported as “SMALL PLAQUES, WITH TAILS”.
`CCOC(=O)c1ccc(-c2ccc3c(-c4ccc(C#N)cc4)n[nH]c3n2)cc1` [APcK-55]: the “VACCINIA PLAQUE ASSAY 2” value is “NO PLAQUES”.
Turning to `CCOC(=O)c1ccc(-c2n[nH]c3nc(-c4cc(C)c(O)c(C)c4)ccc23)cc1` [APcK-106], the “Class category of infected monolayers” value was “Class III”, the “VACCINIA PLAQUE ASSAY 2” value was “PINPOINT PLAQUES” and the “VACCINIA Plaque Assay” value is recorded as “SMALLER PLAQUES THAN WT”.
On the same counts, the results for `CC(=O)Nc1cccc(-c2ccc3c(-c4ccc(Cl)cc4Cl)n[nH]c3n2)c1` [APcK-40] are “Class III”, “PINPOINT PLAQUES” and “SLIGHTLY SMALLER PLAQUES”.
For the compound `O=C(Nc1cccc(-c2ccc(Cl)nn2)c1)Oc1ccccc1` [LG2-111], the “VACCINIA Plaque Assay” value is recorded as “PINPOINT PLAQUES”.
For `CC(=O)Nc1cccc(-c2ccc3c(-c4ccc(C#N)cc4)n[nH]c3n2)c1` [APcK-44], the “Class category of infected monolayers” value was “Class III”, the “VACCINIA PLAQUE ASSAY 2” value is on record as “PINPOINT PLAQUES” and the “VACCINIA Plaque Assay” value was “SMALL PLAQUES WITH COMETS”.
Take `CCN(CC)CCNC(=O)/C=C\C(=O)Nc1ccc2ncnc(Nc3cccc(I)c3)c2c1` [JGAP-11]: the “VACCINIA Plaque Assay” value is on record as “MORE PLAQUES THAN WT”.
On to `COc1ccc(Nc2nccn3c(Br)cnc23)cc1` [LG2-9], for which the “Class category of infected monolayers” value was “Class III”, the “VACCINIA PLAQUE ASSAY 2” value is reported as “PINPOINTS” and the “VACCINIA Plaque Assay” value is reported as “SLIGHTLY SMALLER PLAQUES”.
On to `CC(C)c1ccc(Nc2nccn3c(Br)cnc23)cc1` [LG2-60], for which the “VACCINIA PLAQUE ASSAY 2” value is reported as “NO PLAQUES”.
`COc1ccccc1NS(=O)(=O)c1cccc(Nc2cc(-c3ccc(O)cc3)ncn2)c1` [Eph2_wbz 102]: the “Class category of infected monolayers” value is “Class III”, the “VACCINIA PLAQUE ASSAY 2” value is “no plaques” and the “VACCINIA Plaque Assay” value is “NO PLAQUES”.
On the same counts, the results for `COc1cccc(-c2cc(Nc3cccc(S(=O)(=O)Nc4ccccc4OC)c3)ncn2)c1` [Eph2_wbz 112] are “Class III”, “PINPOINT” and “SMALL PLAQUES”.
With `COc1ccc(-c2nc(C(N)=O)c3[nH]c(=O)n(-c4ccc(C)cc4)c3n2)cc1OC` [dm-I-196], the “Class category of infected monolayers” value is “Class III”; the “Plaque phenotype due” value was “small plaques with no comets; also recorded: smaller (pinpoint) plaques with no comets”; the “VACCINIA PLAQUE ASSAY 2” value is “PINPOINTS”; the “VACCINIA Plaque Assay” value is listed as “SMALL PLAQUES, NO TAILS”.
For `COc1ccccc1NS(=O)(=O)c1cccc(Nc2cc(-c3ccc(C(F)(F)F)cc3)ncn2)c1` [Eph2_wbz 107], the “Class category of infected monolayers” value was “Class II”, the “VACCINIA PLAQUE ASSAY 2” value is listed as “SMALLER PLAQUES THAN WT” and the “VACCINIA Plaque Assay” value is on record as “SMALLER PLAQUES THAN WT”.
For the compound `Cc1ccc(NC(=O)c2ccc(CN3CCN(Cc4ccc(I)cc4)CC3)cc2)cc1Nc1nccc(-c2cccnc2)n1` [STLL3], the “Class category of infected monolayers” value was “Class III”, the “VACCINIA PLAQUE ASSAY 2” value is reported as “NO PLAQUES” and the “VACCINIA Plaque Assay” value is listed as “PINPOINT PLAQUES”.
On the same counts, the results for `Cn1c(=O)c(-c2c(Cl)cccc2Cl)cc2cnc(NC3CCCCC3)nc21` [YYA194] are “Class III”, “NO PLAQUES” and “PINPOINT PLAQUES”.
On the same counts, the results for `O=C(Nc1cccc(-c2ccc(Cl)nn2)c1)c1cccc([N+](=O)[O-])c1` [YYB19] are “Class III”, “NO PLAQUES” and “PINPOINT PLAQUES”.
Turning to `COc1ccc(-c2n[nH]c3nc(-c4ccc(O)cc4OC)ccc23)cc1` [APcK-31], the “VACCINIA PLAQUE ASSAY 2” value is “SMALL PLAQUES”.
In the case of `COc1ccccc1Nc1cc(-c2ccc(O)cc2)ncn1` [Eph2_wbz 202], the “Class category of infected monolayers” value is “Class III”; the “VACCINIA PLAQUE ASSAY 2” value is recorded as “PINPOINT PLAQUES”; the “VACCINIA Plaque Assay” value is recorded as “PLAQUES SMALLER THAN WT, STILL SEE COMETS”.
Turning to `NC(=O)c1cccc(-c2ccc3c(-c4ccc(F)cc4)n[nH]c3n2)c1` [APcK-115], the “VACCINIA PLAQUE ASSAY 2” value is “SMALL PLAQUES”.
On to `COc1ccccc1NS(=O)(=O)c1cccc(Nc2cc(-c3ccc(NC(C)=O)cc3)ncn2)c1` [Eph2_wbz 106], for which the “Class category of infected monolayers” value is given as “Class III”, the “VACCINIA PLAQUE ASSAY 2” value was “SMALLER PLAQUES THAN WT” and the “VACCINIA Plaque Assay” value is listed as “NO PLAQUES”.
Regarding `O=C1NC(=O)/C(=C/c2ccc3c(c2)OC(F)(F)O3)S1` [AS-604850, reference compound], the “Class category of infected monolayers” value was “Class III”, the “VACCINIA PLAQUE ASSAY 2” value is recorded as “NO PLAQUES” and the “VACCINIA Plaque Assay” value is reported as “NO PLAQUES”.
For the compound `Cn1c(=O)c(-c2c(Cl)cccc2Cl)cc2cnc(NC3CCN(Cc4ccccc4)CC3)nc21` [YYA188], the “Class category of infected monolayers” value is on record as “Class III”, the “VACCINIA PLAQUE ASSAY 2” value was “NO PLAQUES” and the “VACCINIA Plaque Assay” value is “NO PLAQUES”.
